Test results: ChEMBL document CHEMBL4024712, “Synthesis, stability and mechanistic studies of potent anticryptococcal hexapeptides” (Eur J Med Chem, 2017); call rule not given here
In brackets after ≈: the same amount, converted by molar mass. Non-standard residues stand in square brackets, D forms with d. Residues, ends and D or L forms follow the SMILES beside them. His(τ-Bzl) = N[C@@H](Cc1cn(Cc2ccccc2)cn1)C(=O)O; Phe(4-NH2) = Nc1ccc(C[C@H](N)C(=O)O)cc1; Phe(4-Me) = Cc1ccc(C[C@H](N)C(=O)O)cc1; dOrn = NCCC[C@@H](N)C(=O)O; Orn = NCCC[C@H](N)C(=O)O; Dab = NCC[C@H](N)C(=O)O

What was measured:
Candida albicans = test: Antifungal activity against Candida albicans ATCC 90028 after 18 to 24 hrs by Alamar blue assay; assay type: functional
Nakaseomyces glabratus = test: Antifungal activity against Candida glabrata ATCC 90030 after 18 to 24 hrs by Alamar blue assay; assay type: functional
Pichia kudriavzevii [1] = test: Antifungal activity against Candida krusei ATCC 6258 after 18 to 24 hrs by Alamar blue assay; assay type: functional
Aspergillus fumigatus = test: Antifungal activity against Aspergillus fumigatus ATCC 90906 after 68 to 72 hrs by Alamar blue assay; assay type: functional
Cryptococcus neoformans [2] = test: Antifungal activity against Cryptococcus neoformans ATCC 90113 after 68 to 72 hrs by Alamar blue assay; assay type: functional
Cryptococcus neoformans [3] = test: Fungicidal activity against Cryptococcus neoformans ATCC 90113 after 68 to 72 hrs by Alamar blue assay; assay type: functional
[4] = tested on: Mycobacterium intracellulare; test: Anti-bacterial activity against Mycobacterium intracellulare ATCC 23068 after 68 to 72 hrs by Alamar blue assay; assay type: functional, cell-based
Staphylococcus aureus [5] = test: Anti-bacterial activity against methicillin-resistant Staphylococcus aureus ATCC 33591 by CLSI method; assay type: functional
Staphylococcus aureus [6] = test: Anti-bacterial activity against Staphylococcus aureus ATCC 29213 by CLSI method; assay type: functional
Escherichia coli [7] = test: Anti-bacterial activity against Escherichia coli ATCC 35218 by CLSI method; assay type: functional
Pseudomonas aeruginosa = test: Anti-bacterial activity against Pseudomonas aeruginosa ATCC 27853 by CLSI method; assay type: functional
Vero = test: Cytotoxicity against African green monkey Vero cells up to 10 ug/ml after 48 hrs by neutral red dye based assay; assay type: cell-based; conditions: chlorocebus sabaeus
Pichia kudriavzevii [8] = test: Fungicidal activity against Candida krusei ATCC 6258 after 18 to 24 hrs by Alamar blue assay; assay type: functional
Staphylococcus aureus [9] = test: Bactericidal activity against Staphylococcus aureus ATCC 29213 by CLSI method; assay type: functional
Escherichia coli [10] = test: Bactericidal activity against Escherichia coli ATCC 35218 by CLSI method; assay type: functional
Staphylococcus aureus [11] = test: Bactericidal activity against methicillin-resistant Staphylococcus aureus ATCC 33591 by CLSI method; assay type: functional
[12] = Pichia kudriavzevii, ATCC 6258, read-out: IC50
[13] = Staphylococcus aureus, ATCC 33591, read-out: IC50
[14] = Staphylococcus aureus, ATCC 29213, read-out: IC50
[15] = Escherichia coli, ATCC 35218, read-out: IC50
[16] = Staphylococcus aureus, ATCC 29213

Compound	IC50 (Candida albicans)	IC50 (Nakaseomyces glabratus)	IC50 (Aspergillus fumigatus)	IC50 (Cryptococcus neoformans [2]) [µg/mL]	MIC (Cryptococcus neoformans [2]) [µg/mL]	MFC (Cryptococcus neoformans [3]) [µg/mL]	IC50 [4]	IC50 (Pseudomonas aeruginosa)	Activity (Vero)	IC50 (Pichia kudriavzevii [1]; [12]) [µg/mL]	IC50 (Staphylococcus aureus [5]; [13]) [µg/mL]	IC50 (Staphylococcus aureus [6]; [14]) [µg/mL]	IC50 (Escherichia coli [7]; [15]) [µg/mL]	MIC (Pichia kudriavzevii [1]; Pichia kudriavzevii, ATCC 6258) [µg/mL]	MFC (Pichia kudriavzevii [8]) [µg/mL]	MBC (Staphylococcus aureus [9]) [µg/mL]	other results
Cc1ccc(C[C@H](NC(=O)[C@@H](Cc2ccccc2)NC(=O)[C@@H](Cc2c[nH]c3ccccc23)NC(=O)[C@@H](N)CCCN)C(=O)N[C@H](Cc2ccccc2)C(=O)N[C@@H](Cc2c[nH]cn2)C(N)=O)cc1 (H-[Orn][dW][dF][Phe(4-Me)][dF]H-NH2)	Not Active	Not Active	Not Active	0.8 (≈ 0.879 µM)	1.25 (≈ 1.37 µM)	1.25 (≈ 1.37 µM)	Not Active	Not Active	Non-Toxic	–	–	–	–	–	–	–	IC50 (Pichia kudriavzevii [1]): Not Active; IC50 (Staphylococcus aureus [5]): Not Active; IC50 (Staphylococcus aureus [6]): Not Active; IC50 (Escherichia coli [7]): Not Active
Cc1ccc(C[C@H](NC(=O)[C@@H](Cc2ccccc2)NC(=O)[C@@H](Cc2c[nH]c3ccccc23)NC(=O)[C@@H](N)CCCN)C(=O)N[C@H](Cc2ccccc2)C(=O)N[C@@H](CCN)C(N)=O)cc1 (H-[Orn][dW][dF][Phe(4-Me)][dF][Dab]-NH2)	Not Active	Not Active	Not Active	0.8 (≈ 0.916 µM)	–	–	Not Active	Not Active	Non-Toxic	14.8 (≈ 16.9 µM)	> 20	16.1 (≈ 18.4 µM)	6 (≈ 6.87 µM)	–	–	–	–
Cc1ccc(C[C@H](NC(=O)[C@@H](Cc2ccccc2)NC(=O)[C@@H](Cc2c[nH]c3ccccc23)NC(=O)[C@@H](N)CCCN)C(=O)N[C@H](Cc2ccccc2)C(=O)N[C@H](Cc2c[nH]cn2)C(N)=O)cc1 (H-[Orn][dW][dF][Phe(4-Me)][dF][dH]-NH2)	Not Active	Not Active	Not Active	0.8 (≈ 0.879 µM)	1.25 (≈ 1.37 µM)	1.25 (≈ 1.37 µM)	Not Active	Not Active	Non-Toxic	5.16 (≈ 5.67 µM)	> 20	18 (≈ 19.8 µM)	12.7 (≈ 14 µM)	10 (≈ 11 µM)	10 (≈ 11 µM)	–	–
Cc1ccc(C[C@H](NC(=O)[C@@H](Cc2ccccc2)NC(=O)[C@@H](Cc2c[nH]c3ccccc23)NC(=O)[C@@H](N)CCCN)C(=O)N[C@H](Cc2ccccc2)C(=O)N[C@H](CCCN)C(N)=O)cc1 (H-[Orn][dW][dF][Phe(4-Me)][dF][dOrn]-NH2)	Not Active	Not Active	Not Active	0.67 (≈ 0.755 µM)	1.25 (≈ 1.41 µM)	1.25 (≈ 1.41 µM)	Not Active	Not Active	Non-Toxic	9.7 (≈ 10.9 µM)	> 20	> 20	> 20	20 (≈ 22.5 µM)	20 (≈ 22.5 µM)	–	–
Cc1ccc(C[C@H](NC(=O)[C@@H](Cc2ccccc2)NC(=O)[C@@H](Cc2c[nH]c3ccccc23)NC(=O)[C@@H](N)CCCN)C(=O)N[C@H](Cc2ccccc2)C(=O)N[C@H](CCCNC(=N)N)C(N)=O)cc1 (H-[Orn][dW][dF][Phe(4-Me)][dF][dR]-NH2)	Not Active	Not Active	Not Active	0.83 (≈ 0.893 µM)	1.25 (≈ 1.35 µM)	1.25 (≈ 1.35 µM)	Not Active	–	Non-Toxic	14 (≈ 15 µM)	> 20	13.5 (≈ 14.5 µM)	4.8 (≈ 5.17 µM)	20 (≈ 21.5 µM)	20 (≈ 21.5 µM)	20 (≈ 21.5 µM)	MIC (Staphylococcus aureus [6]; [16]): 20 µg/mL (≈ 21.5 µM); MIC (Escherichia coli [7]; Escherichia coli, ATCC 35218): 10 µg/mL (≈ 10.8 µM); MBC (Escherichia coli [10]): 20 µg/mL (≈ 21.5 µM); IC50 (Pseudomonas aeruginosa; Pseudomonas aeruginosa, ATCC 27853, read-out: IC50): 15.7 µg/mL (≈ 16.9 µM)
Cc1ccc(C[C@H](NC(=O)[C@@H](Cc2ccccc2)NC(=O)[C@@H](Cc2c[nH]c3ccccc23)NC(=O)[C@@H](N)Cc2ccc(N)cc2)C(=O)N[C@H](Cc2ccccc2)C(=O)N[C@@H](Cc2cn(Cc3ccccc3)cn2)C(N)=O)cc1 (H-[Phe(4-NH2)][dW][dF][Phe(4-Me)][dF][His(τ-Bzl)]-NH2)	Not Active	Not Active	Not Active	–	–	5 (≈ 4.77 µM)	Not Active	Not Active	Non-Toxic	–	–	–	–	–	–	20 (≈ 19.1 µM)	IC50 (Pichia kudriavzevii [1]): Not Active; IC50 (Staphylococcus aureus [5]): Not Active; IC50 (Escherichia coli [7]): Not Active
Cc1ccc(C[C@H](NC(=O)[C@@H](Cc2ccccc2)NC(=O)[C@@H](Cc2c[nH]c3ccccc23)NC(=O)[C@H](N)CCCNC(=N)N)C(=O)N[C@H](Cc2ccccc2)C(=O)N[C@@H](Cc2cn(Cc3ccccc3)cn2)C(N)=O)cc1 (H-[dR][dW][dF][Phe(4-Me)][dF][His(τ-Bzl)]-NH2)	Not Active	Not Active	Not Active	–	–	2.5 (≈ 2.4 µM)	Not Active	Not Active	Non-Toxic	–	–	–	–	20 (≈ 19.2 µM)	20 (≈ 19.2 µM)	20 (≈ 19.2 µM)	MIC (Staphylococcus aureus [5]; Staphylococcus aureus, ATCC 33591): 20 µg/mL (≈ 19.2 µM); MBC (Staphylococcus aureus [11]): 20 µg/mL (≈ 19.2 µM); MIC (Staphylococcus aureus [6]; [16]): 20 µg/mL (≈ 19.2 µM); MIC (Escherichia coli [7]; Escherichia coli, ATCC 35218): 20 µg/mL (≈ 19.2 µM); MBC (Escherichia coli [10]): 20 µg/mL (≈ 19.2 µM)
